# Patent US20230157952A1, “METHOD FOR IMPROVING THE STABILITY OF A PHARMACEUTICAL COMPOSITION COMPRISING A HIGH PENETRATION DRUG, AND THE PHARMACEUTICAL COMPOSITION OBTAINED THEREFROM” (Techfields Inc., priority 2020, published 2023)
# Test: Effect of temperature (and pH) on the stability of the solution (purity)
# Format: physicochemical
structure (smiles),measurement,setting,value
CCN(CC)CCOC(=O)Cc1ccccc1Oc1ccc(Cl)cc1Cl.Cl,Purity (%) at day 21 (60° C.),"pH 1.0, 7% solution in water",0%
same,Purity(%) at day 0,"pH 1.0, 7% solution in water",97.9 ± 0.3%
same,Purity(%) at day 21 (5° C.),"pH 1.0, 7% solution in water",91.3 ± 0.3%
same,Purity(%) at day 21 (25° C.),"pH 1.0, 7% solution in water",67.3 ± 0.3%
same,Purity(%) at day 21 (40° C.),"pH 1.0, 7% solution in water",15.1 ± 0.3%
same,Purity (%) at day 21 (60° C.),"pH 2.0, 7% solution in water",0%
same,Purity(%) at day 0,"pH 2.0, 7% solution in water",98.0 ± 0.2%
same,Purity(%) at day 21 (5° C.),"pH 2.0, 7% solution in water",95.1 ± 0.3%
same,Purity(%) at day 21 (25° C.),"pH 2.0, 7% solution in water",82.1 ± 0.3%
same,Purity(%) at day 21 (40° C.),"pH 2.0, 7% solution in water",27.0 ± 0.3%
same,Purity (%) at day 21 (60° C.),"pH 3.0, 7% solution in water",0%
same,Purity(%) at day 0,"pH 3.0, 7% solution in water",98.3 ± 0.2%
same,Purity(%) at day 21 (5° C.),"pH 3.0, 7% solution in water",97.0 ± 0.2%
same,Purity(%) at day 21 (25° C.),"pH 3.0, 7% solution in water",93.5 ± 0.2%
same,Purity(%) at day 21 (40° C.),"pH 3.0, 7% solution in water",48.3 ± 0.3%
same,Purity (%) at day 21 (60° C.),"pH 3.7, 7% solution in water",13.3 ± 0.5%
same,Purity(%) at day 0,"pH 3.7, 7% solution in water",98.4 ± 0.1%
same,Purity(%) at day 21 (5° C.),"pH 3.7, 7% solution in water",97.6 ± 0.2%
same,Purity(%) at day 21 (25° C.),"pH 3.7, 7% solution in water",96.9 ± 0.3%
same,Purity(%) at day 21 (40° C.),"pH 3.7, 7% solution in water",57.2 ± 0.2%
same,Purity (%) at day 21 (60° C.),"pH 4.0, 7% solution in water",18.2 ± 0.3%
same,Purity(%) at day 0,"pH 4.0, 7% solution in water",98.5 ± 0.1%
same,Purity(%) at day 21 (5° C.),"pH 4.0, 7% solution in water",98.0 ± 0.1%
same,Purity(%) at day 21 (25° C.),"pH 4.0, 7% solution in water",97.0 ± 0.2%
same,Purity(%) at day 21 (40° C.),"pH 4.0, 7% solution in water",68.1 ± 0.3%
same,Purity (%) at day 21 (60° C.),"pH 4.3, 7% solution in water",17.2 ± 0.2%
same,Purity(%) at day 0,"pH 4.3, 7% solution in water",98.5 ± 0.2%
same,Purity(%) at day 21 (5° C.),"pH 4.3, 7% solution in water",98.0 ± 0.1%
same,Purity(%) at day 21 (25° C.),"pH 4.3, 7% solution in water",97.0 ± 0.3%
same,Purity(%) at day 21 (40° C.),"pH 4.3, 7% solution in water",68.1 ± 0.3%
same,Purity (%) at day 21 (60° C.),"pH 4.6, 7% solution in water",14.3 ± 0.3%
same,Purity(%) at day 0,"pH 4.6, 7% solution in water",98.6 ± 0.1%
same,Purity(%) at day 21 (5° C.),"pH 4.6, 7% solution in water",98.1 ± 0.2%
same,Purity(%) at day 21 (25° C.),"pH 4.6, 7% solution in water",96.1 ± 0.2%
same,Purity(%) at day 21 (40° C.),"pH 4.6, 7% solution in water",54.5 ± 0.2%
same,Purity (%) at day 21 (60° C.),"pH 5.0, 7% solution in water",1.2 ± 0.2%
same,Purity(%) at day 0,"pH 5.0, 7% solution in water",98.4 ± 0.2%
same,Purity(%) at day 21 (5° C.),"pH 5.0, 7% solution in water",96.9 ± 0.2%
same,Purity(%) at day 21 (25° C.),"pH 5.0, 7% solution in water",93.1 ± 0.3%
same,Purity(%) at day 21 (40° C.),"pH 5.0, 7% solution in water",40.8 ± 0.3%
same,Purity (%) at day 21 (60° C.),"pH 6.0, 7% solution in water",0%
same,Purity(%) at day 0,"pH 6.0, 7% solution in water",98.2 ± 0.2%
same,Purity(%) at day 21 (5° C.),"pH 6.0, 7% solution in water",95.0 ± 0.2%
same,Purity(%) at day 21 (25° C.),"pH 6.0, 7% solution in water",86.7 ± 0.2%
same,Purity(%) at day 21 (40° C.),"pH 6.0, 7% solution in water",27.8 ± 0.2%
same,Purity (%) at day 21 (60° C.),"pH 7.0, 7% solution in water",0%
same,Purity(%) at day 0,"pH 7.0, 7% solution in water",98.0 ± 0.3%
same,Purity(%) at day 21 (5° C.),"pH 7.0, 7% solution in water",90.0 ± 0.3%
same,Purity(%) at day 21 (25° C.),"pH 7.0, 7% solution in water",59.3 ± 0.3%
same,Purity(%) at day 21 (40° C.),"pH 7.0, 7% solution in water",11.0 ± 0.4%
same,Purity (%) at day 21 (60° C.),"pH 8.0, 7% solution in water",0%
same,Purity(%) at day 0,"pH 8.0, 7% solution in water",97.8 ± 0.3%
same,Purity(%) at day 21 (5° C.),"pH 8.0, 7% solution in water",78.3 ± 0.3%
same,Purity(%) at day 21 (25° C.),"pH 8.0, 7% solution in water",47.1 ± 0.3%
same,Purity(%) at day 21 (40° C.),"pH 8.0, 7% solution in water",0%
CCN(CC)CCOC(=O)CCc1ccc2cc(OC)ccc2c1.Cl,Purity(%) at day 0,"7% solution in water, pH 1.0, day 0",98.0 ± 0.3%
same,Purity(%) at day 21 (5° C.),"7% solution in water, pH 1.0, day 21, 5° C.",92.7 ± 0.3%
same,Purity(%) at day 21 (25° C.),"7% solution in water, pH 1.0, day 21, 25° C.",69.1 ± 0.3%
same,Purity(%) at day 21 (40° C.),"7% solution in water, pH 1.0, day 21, 40° C.",16.3 ± 0.3%
same,Purity (%) at day 21 (60° C.),"7% solution in water, pH 1.0, day 21, 60° C.",0%
same,Purity(%) at day 0,"7% solution in water, pH 2.0, day 0",98.1 ± 0.3%
same,Purity(%) at day 21 (5° C.),"7% solution in water, pH 2.0, day 21, 5° C.",95.9 ± 0.3%
same,Purity(%) at day 21 (25° C.),"7% solution in water, pH 2.0, day 21, 25° C.",83.5 ± 0.3%
same,Purity(%) at day 21 (40° C.),"7% solution in water, pH 2.0, day 21, 40° C.",27.5 ± 0.3%
same,Purity (%) at day 21 (60° C.),"7% solution in water, pH 2.0, day 21, 60° C.",0%
same,Purity(%) at day 0,"7% solution in water, pH 3.0, day 0",98.3 ± 0.2%
same,Purity(%) at day 21 (5° C.),"7% solution in water, pH 3.0, day 21, 5° C.",97.4 ± 0.3%
same,Purity(%) at day 21 (25° C.),"7% solution in water, pH 3.0, day 21, 25° C.",94.6 ± 0.2%
same,Purity(%) at day 21 (40° C.),"7% solution in water, pH 3.0, day 21, 40° C.",49.3 ± 0.2%
same,Purity (%) at day 21 (60° C.),"7% solution in water, pH 3.0, day 21, 60° C.",0%
same,Purity(%) at day 0,"7% solution in water, pH 3.7, day 0",98.4 ± 0.2%
same,Purity(%) at day 21 (5° C.),"7% solution in water, pH 3.7, day 21, 5° C.",97.7 ± 0.2%
same,Purity(%) at day 21 (25° C.),"7% solution in water, pH 3.7, day 21, 25° C.",97.3 ± 0.2%
same,Purity(%) at day 21 (40° C.),"7% solution in water, pH 3.7, day 21, 40° C.",59.9 ± 0.2%
same,Purity (%) at day 21 (60° C.),"7% solution in water, pH 3.7, day 21, 60° C.",19.3 ± 0.3%
same,Purity(%) at day 0,"7% solution in water, pH 4.0, day 0",98.5 ± 0.1%
same,Purity(%) at day 21 (5° C.),"7% solution in water, pH 4.0, day 21, 5° C.",98.2 ± 0.2%
same,Purity(%) at day 21 (25° C.),"7% solution in water, pH 4.0, day 21, 25° C.",97.5 ± 0.2%
same,Purity(%) at day 21 (40° C.),"7% solution in water, pH 4.0, day 21, 40° C.",70.7 ± 0.2%
same,Purity (%) at day 21 (60° C.),"7% solution in water, pH 4.0, day 21, 60° C.",23.6 ± 0.3%
same,Purity(%) at day 0,"7% solution in water, pH 4.3, day 0",98.5 ± 0.2%
same,Purity(%) at day 21 (5° C.),"7% solution in water, pH 4.3, day 21, 5° C.",98.2 ± 0.2%
same,Purity(%) at day 21 (25° C.),"7% solution in water, pH 4.3, day 21, 25° C.",97.6 ± 0.1%
same,Purity(%) at day 21 (40° C.),"7% solution in water, pH 4.3, day 21, 40° C.",70.1 ± 0.2%
same,Purity (%) at day 21 (60° C.),"7% solution in water, pH 4.3, day 21, 60° C.",27.7 ± 0.2%
same,Purity(%) at day 0,"7% solution in water, pH 4.6, day 0",98.5 ± 0.1%
same,Purity(%) at day 21 (5° C.),"7% solution in water, pH 4.6, day 21, 5° C.",98.2 ± 0.2%
same,Purity(%) at day 21 (25° C.),"7% solution in water, pH 4.6, day 21, 25° C.",97.5 ± 0.2%
same,Purity(%) at day 21 (40° C.),"7% solution in water, pH 4.6, day 21, 40° C.",59.3 ± 0.2%
same,Purity (%) at day 21 (60° C.),"7% solution in water, pH 4.6, day 21, 60° C.",22.3 ± 0.2%
same,Purity(%) at day 0,"7% solution in water, pH 5.0, day 0",98.4 ± 0.2%
same,Purity(%) at day 21 (5° C.),"7% solution in water, pH 5.0, day 21, 5° C.",97.5 ± 0.2%
same,Purity(%) at day 21 (25° C.),"7% solution in water, pH 5.0, day 21, 25° C.",94.9 ± 0.2%
same,Purity(%) at day 21 (40° C.),"7% solution in water, pH 5.0, day 21, 40° C.",45.8 ± 0.3%
same,Purity (%) at day 21 (60° C.),"7% solution in water, pH 5.0, day 21, 60° C.",5.9 ± 0.2%
same,Purity(%) at day 0,"7% solution in water, pH 6.0, day 0",98.2 ± 0.2%
same,Purity(%) at day 21 (5° C.),"7% solution in water, pH 6.0, day 21, 5° C.",95.3 ± 0.2%
same,Purity(%) at day 21 (25° C.),"7% solution in water, pH 6.0, day 21, 25° C.",88.8 ± 0.2%
same,Purity(%) at day 21 (40° C.),"7% solution in water, pH 6.0, day 21, 40° C.",28.6 ± 0.2%
same,Purity (%) at day 21 (60° C.),"7% solution in water, pH 6.0, day 21, 60° C.",0%
same,Purity(%) at day 0,"7% solution in water, pH 7.0, day 0",98.0 ± 0.3%
same,Purity(%) at day 21 (5° C.),"7% solution in water, pH 7.0, day 21, 5° C.",90.2 ± 0.3%
same,Purity(%) at day 21 (25° C.),"7% solution in water, pH 7.0, day 21, 25° C.",60.9 ± 0.2%
same,Purity(%) at day 21 (40° C.),"7% solution in water, pH 7.0, day 21, 40° C.",17.4 ± 0.3%
same,Purity (%) at day 21 (60° C.),"7% solution in water, pH 7.0, day 21, 60° C.",0%
same,Purity(%) at day 0,"7% solution in water, pH 8.0, day 0",97.7 ± 0.3%
same,Purity(%) at day 21 (5° C.),"7% solution in water, pH 8.0, day 21, 5° C.",79.7 ± 0.3%
same,Purity(%) at day 21 (25° C.),"7% solution in water, pH 8.0, day 21, 25° C.",49.9 ± 0.3%
same,Purity(%) at day 21 (40° C.),"7% solution in water, pH 8.0, day 21, 40° C.",0%
same,Purity (%) at day 21 (60° C.),"7% solution in water, pH 8.0, day 21, 60° C.",0%
